Residues, ends and D or L forms follow the SMILES beside them.
Key:
Pepsin = experiment: Peptide proteolysis resistance, pepsin; type: in vitro ADME; conditions: peptide 0.1 mM, pepsin 3 mg/ml, 0.02M acetate buffer pH 2, 1 h, MALDI-TOF with internal standards, triplicates
Description: (§1) Peptides (0.1 mM) were incubated at 37°C in 20 mM ammonium bicarbonate buffer at pH 8.2, with 10 ug/ml trypsin or […] Proteinase K. To test resistance to Pepsin, peptides (0.1 mM) were incubated with Pepsin (3 mg/ml) in 0.02M acetate buffer (pH 2). The amount of intact peptide was monitored over time by Matrix-assisted laser desorption/ionization time-of-flight (MALDI-TOF) on a Bruker Autoflex III instrument (Bruker Optics, Inc., USA). Internal standards (Bombesin, ACTH (1–17), ACTH (18–39) and Insulin) were used to quantify the relative amount of peptide in each sample.

trypsin = experiment: Peptide proteolysis resistance, trypsin; type: in vitro ADME; conditions: peptide 0.1 mM, 10 ug/ml trypsin, 20 mM ammonium bicarbonate pH 8.2, 37°C, MALDI-TOF with internal standards, first time point 3 h, triplicates
Description: as §1

[1] = Circular dichroism spectroscopy; type: physicochemical; conditions: CD 190-250 nm
Description: Circular dichroism (CD) spectra were acquired on a Chirascan Q100 spectrometer. CD spectra were recorded in the190–250 nm range, using a 0.1 cm quartz cell and analyzed with Bettsele® on-line software ([24]).

LPL from bovine milk [2] = target: T1, LPL from bovine milk (Bos taurus, UniProt P11151); experiment: In vitro LPL activity assay (NEFA generation, ApoC2-deficient plasma substrate); type: biochemical; conditions: 0-2 µM peptide, bovine milk LPL, ApoC2-deficient plasma substrate, 37°C 1 h, NEFA read-out, triplicates
T1 construct: LPL from bovine milk (Sigma-Aldrich); purchased Sigma-Aldrich; host or cells: bovine milk (natural source)
T1 sequence (P11151 29-478): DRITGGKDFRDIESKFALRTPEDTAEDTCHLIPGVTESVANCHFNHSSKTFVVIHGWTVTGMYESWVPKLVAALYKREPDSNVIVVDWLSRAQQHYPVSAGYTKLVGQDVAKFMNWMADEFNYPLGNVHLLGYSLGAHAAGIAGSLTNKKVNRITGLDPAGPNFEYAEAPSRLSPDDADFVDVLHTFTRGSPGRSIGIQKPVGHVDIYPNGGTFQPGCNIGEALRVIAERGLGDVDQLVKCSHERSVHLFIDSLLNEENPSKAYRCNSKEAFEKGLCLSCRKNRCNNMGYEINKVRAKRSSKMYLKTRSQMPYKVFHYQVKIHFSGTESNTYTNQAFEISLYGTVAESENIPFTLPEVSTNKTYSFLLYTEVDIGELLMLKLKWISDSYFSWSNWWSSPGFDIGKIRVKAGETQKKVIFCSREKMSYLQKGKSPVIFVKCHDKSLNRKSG
Description: (§2) LPL activity was determined by measuring the generation of non-esterified fatty acids (NEFA). In a 96-well plate, 0–2 µM of an ApoC2 mimetic peptide, 0.83 nM of LPL from bovine milk (Sigma-Aldrich), ApoC2-deficient ethylenediaminetetraacetic acid (EDTA)-plasma (diluted with PBS to a final TG concentration of 0.67 mg/dl), 2 IU/ml heparin, 0.2% fatty acids free bovine serum albumin (BSA) (ICN Biomedicals), and PBS (Life Technologies) were combined in a final reaction volume of 50 μl. The reaction mixture was pre-incubated on ice for 30 min and incubated at 37°C for 1 h. NEFA were measured with a coupled enzyme reaction (Wako Diagnostics) in a Synergy H1 microplate reader (BioTek, USA).

Proteinase K = Proteinase K (Parengyodontium album, UniProt P06873); type: in vitro ADME; conditions: peptide 0.1 mM, 16 ug/kg Proteinase K, 20 mM ammonium bicarbonate pH 8.2, 37°C, MALDI-TOF with internal standards, first time point 3 h, triplicates
Sequence of Proteinase K (P06873 106-384): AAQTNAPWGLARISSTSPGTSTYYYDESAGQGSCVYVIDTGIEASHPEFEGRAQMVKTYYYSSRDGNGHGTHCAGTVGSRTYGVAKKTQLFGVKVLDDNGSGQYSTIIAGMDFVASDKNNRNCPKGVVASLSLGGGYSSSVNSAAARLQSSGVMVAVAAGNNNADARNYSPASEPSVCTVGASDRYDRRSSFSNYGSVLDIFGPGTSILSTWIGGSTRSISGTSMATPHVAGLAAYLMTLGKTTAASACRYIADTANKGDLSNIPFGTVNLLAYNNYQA
Description: as §1

Apoc2^h/h mice = experiment: Plasma lipids in ApoC2-hypomorphic mice after peptide injection; type: in vivo, mouse; conditions: single IP 1 umole/kg, n = 5
Description: ApoC2–hypomorphic mice (Apoc2^h/h) ([25]) and human ApoC3-transgenic (hAPOC3-tg) mice ([26]) were fed a regular rodent chow diet (NIH-31 chow diet: Zeigler Brothers Inc.). Peptides dissolved in 20 mM TRIS (pH 8.2) or vehicle control were injected intraperitoneally or intravenously at the indicated concentrations. Blood samples were collected from the retro-orbital sinus with a heparinized capillary tube. Whole blood was centrifuged at 1,000 g for 20 min at 4°C to obtain plasma. All animal procedures were approved by the National Heart, Lung, and Blood Institute Animal Care and Use Committee (protocol #H-0050).

[3] = DMPC vesicle clearance (solubilization) assay; type: physicochemical; conditions: peptide 0-100 µM in 20 mM TRIS pH 8.2, DMPC vesicles 0.5 mg/ml in PBS, absorbance 660 nm, 1 h, 24°C
Description: Dimyristoyl Phosphatidyl Choline (DMPC) (Avanti 850345C) vesicles were made by sonication (0.5 mg/ml) in phosphate buffer saline (PBS). Peptides (0, 25, 50 and 100 µM) in 20 mM TRIS, pH 8.2 were added to DMPC vesicles (0.5 mg/ml) prepared by sonication in PBS and turbidity was monitored in a Victor^3 plate reader (Perkin Elmer, USA) by monitoring absorbance at 660 nm for 1 h at 24°C. Samples were shaken at 300 RPM. Absorbance over time was plotted and areas-under-the-curve (AOC) were calculated. PBS was used as a negative control sample and Triton X-100 at a final concentration of 1% (w/v) was used as positive control.

LPL from bovine milk [4] = target: T1, LPL from bovine milk; experiment: In vitro LPL activation assay after pepsin treatment; type: biochemical; conditions: 1 h pepsin at pH 2, then pH neutralised; compared with untreated peptide, area-under-the-curve, triplicates
Description: as §2, §1
Figure 4 Peptide proteolysis resistance. […]

Structure (SMILES) | intact full-length peptide after pepsin incubation (Pepsin) | intact full-length peptide after trypsin incubation (trypsin) | secondary structure by CD (result in words) [1] | in vitro LPL activation, dose response (result in words) (LPL from bovine milk [2]) | intact full-length peptide after Proteinase K incubation (Proteinase K) | plasma triglycerides, 1-hour time point (Apoc2^h/h mice; 1 h, compared with D6PV) | plasma triglycerides, 3-hour time point (Apoc2^h/h mice; 3 h) | DMPC vesicle solubilization [3] | alpha-helical secondary structure by CD ([1]; 0.1 cm cell, calculated from spectrum) | ability to activate LPL after pepsin treatment (LPL from bovine milk [4])
CCCCCCCC(=O)NC(C)(C)C(=O)N[C@@H](CCCC)C(=O)N[C@]1(C)CCCCCCC=CCCCC2(CCCC=CCCCCCC[C@@](C)(C(=O)N[C@@H](CCCCN)C(=O)N(C)CC(=O)N[C@H](CCC(=O)O)C(=O)N[C@H](CCC(=O)O)C(=O)O)NC(=O)[C@H](C(C)C)NC(=O)[C@H](CO)NC(=O)[C@H](CC(C)C)NC(=O)[C@H](C(C)C)NC(=O)[C@H](CCC(N)=O)NC(=O)[C@H](CC(=O)O)NC2=O)NC(=O)[C@H](Cc2ccccc2)NC(=O)[C@H]([C@@H](C)CC)NC(=O)CNC(=O)[C@H]([C@@H](C)O)NC(=O)[C@H](Cc2ccc(O)cc2)NC(=O)[C@H]([C@@H](C)O)NC1=O (stereo partly drawn) [SP2a] | highly resistant to proteolysis | highly resistant to proteolysis | highly helical | more potent than SP1 and D6PV | highly resistant to proteolysis | possibly less effective | lowered plasma triglycerides like D6PV | – | – | –
CC[C@H](C)[C@H](NC(=O)CNC(=O)[C@@H](NC(=O)[C@H](Cc1ccc(O)cc1)NC(=O)[C@@H](NC(=O)[C@H](CO)NC(=O)[C@H](CCSC)NC(=O)[C@H](C)N)[C@@H](C)O)[C@@H](C)O)C(=O)N[C@@H](Cc1ccccc1)C(=O)N[C@H](C(=O)N[C@@H](CC(=O)O)C(=O)N[C@@H](CCC(N)=O)C(=O)N[C@H](C(=O)N[C@@H](CC(C)C)C(=O)N[C@@H](CO)C(=O)N[C@H](C(=O)N[C@@H](CC(C)C)C(=O)N[C@@H](CCCCN)C(=O)NCC(=O)N[C@@H](CCC(=O)O)C(=O)N[C@@H](CCC(=O)O)C(=O)O)C(C)C)C(C)C)[C@@H](C)O [P8, reference compound] (H-AMSTYTGIFTDQVLSVLKGEE-OH) | – | – | – | – | – | – | – | inactive | – | –
CCCC[C@H](NC(=O)[C@H](C)NC(C)=O)C(=O)N[C@]1(C)CCCCCCC=CCCCC2(CCCC=CCCCCCC[C@@](C)(C(=O)N[C@@H](CCCCN)C(=O)N(C)CC(=O)N[C@H](CCC(=O)O)C(=O)N[C@H](CCC(=O)O)C(=O)O)NC(=O)[C@H](C(C)C)NC(=O)[C@H](CO)NC(=O)[C@H](CC(C)C)NC(=O)[C@H](C(C)C)NC(=O)[C@H](CCC(N)=O)NC(=O)[C@H](CC(=O)O)NC2=O)NC(=O)[C@H](Cc2ccccc2)NC(=O)[C@H]([C@@H](C)CC)NC(=O)CNC(=O)[C@H]([C@@H](C)O)NC(=O)[C@H](Cc2ccc(O)cc2)NC(=O)[C@H]([C@@H](C)O)NC1=O (stereo partly drawn) [SP2] | resistant to proteolysis | resistant to both proteases | – | slightly more potent than SP1 | resistant to both proteases | – | – | most effective in solubilizing DMPC vesicles | 46% | fully active
